Measured values from paper PMC8949944, “The Effect of Microbubble-Assisted Ultrasound on Molecular Permeability across Cell Barriers” (Pharmaceutics, 2022).
Values joined by “and” are separate entries in the source; they are usually repeats but may differ in a detail not shown here. Identical values can stand only once. “Also recorded” adds a separate entry of the source.

Tests used:
[1] = Permeability of model drugs across epithelial (MDCK II) barrier on transwell after USMB or sham treatment; assay type: in vitro ADME, canine; settings: dog, MDCK; 0 MPa (sham); apical-to-basolateral; read-out: apparent permeability coefficient (Papp)
Procedure: (§1) For the permeability studies, epithelial cells were cultured as tight monolayers on transwell membranes. […] Prior to cell seeding, the transwell membranes were equilibrated for 10 min with culture medium at room temperature. […] The permeability of various test compounds across epithelial monolayers cultured on transwell membranes was studied in the apical-to-basolateral direction (Figure 1A). […] Ultrasound experiments were performed using an unfocused, single-element transducer with 20 mm diameter (PA420, Precision Acoustics, Dorchester, UK). […] The resulting signal was then amplified (AG1012, T&C Power Conversion Inc., New York, NY, USA) before it was sent to the ultrasound transducer. A dedicated sonication tank compatible with transwell inserts was used for the USMB experiments (Figure 1B). The ultrasound transducer was positioned at the bottom of the bath and about 250 mL of PBS at 37 °C was added. Subsequently, the transwell insert was immersed in the bath with the transwell membrane covered with cells facing down (Figure 1B) at a fixed axial distance (80 mm) from the ultrasound transducer. Transwell inserts were randomly assigned to USMB-treated or sham-treated sample groups. Following immersion of USMB-treated samples in the sonication bath, 500 μL of freshly mixed SonoVue^TM microbubbles (Bracco, Milan, Italy) was injected near the cells using a curved-tip 19G needle (Figure 1C). […] Microbubbles were allowed to float for 1 min so that direct contact with the cells was assured. Subsequently, ultrasound was applied for 1 min with acoustic peak negative pressure (Pneg) ranging between 0.3 and 0.7 MPa. […] Sham-treated samples were immersed in the PBS bath for 2 min and served as negative controls (0 MPa). […] Immediately after USMB treatment, transwell inserts were removed from the sonication bath (containing PBS) and were placed in a new six-well plate. […] The initial concentration of test compounds on the apical side was 1 μCi/mL for propranolol and mannitol and 200 μM for 6-carboxyfluorescein and fluorescent dextrans. An overview of the relevant physicochemical characteristics of the test compounds used in the permeability experiments is given in Table 1. […] The volume of removed sample was replaced with fresh HBSS. During the experiment, cells were kept at 37 °C and shaking at 170 rounds per minute. In the experiments where fluorescent compounds were used, samples were protected from light at all times. The samples containing radioactively-labelled compounds were equilibrated overnight in liquid scintillation cocktail for radiometric detection (Ultima Gold, 6013321, Perkin Elmer) at room temperature. Detection of radioactivity counts was determined by a microplate counter for radiometric counting (MicroBeta, 2450, Perkin Elmer). Intensity of fluorescence signals was determined by a spectrofluorophotometer (FP 8300, Jasco Benelux BV, Utrecht, The Netherlands). 6-carboxyfluorescein was excited at 492 nm and emission was detected at 517/5 nm (center wavelength/bandwidth) and TRITC-dextrans were excited at 550 nm and detected at 575/5 nm. Background radioactivity and fluorescence signal from HBSS were subtracted from the measurements. […] Q is the flux of the test compound (μg/s), C0 is the initial concentration of the test compound at the apical side (μg/mL), and A is the surface area of the transwell membrane (cm^2).

[2] = tested on: epithelial (MDCK II) cell barrier; experiment: as above; assay type: in vitro ADME, canine; settings: for total permeated amount: 0 MPa (sham, absence of USMB), 120 min, apical-to-basolateral; for effect of USMB on permeability across epithelial barrier: increasing ultrasound pressures 0.3-0.7 MPa vs sham
Procedure: as §1

[3] = tested on: endothelial (HUVEC) barrier; experiment: Permeability of model drugs across endothelial (HUVEC) barrier on transwell; assay type: in vitro ADME, Human
Source text: Supplementary Information: The Effect of Microbubble-As-sisted Ultrasound on Molecular Permeability across Cell Barri- […]
Charis Rousou, Josanne de Maar, Boning Qiu, Kim van der Wurff-Jacobs, Marika Ruponen, Arto Urtti, Sabrina Oliveira, Chrit Moonen, Gert Storm, Enrico Mastrobattista and Roel Deckers SI-1. Materials and methods
SI-1.1. Culture of endothelial cells
Human umbilical vein endothelial cells (HUVEC) were acquired from Lonza (Verviers, Belgium) and cultured in Endothelial Basal Medium (EBM-2) supplemented with growth factors (Growth Medium 2 SupplementMix®, PromoCell, Heidelberg Germany) and 0.1% antibiotics (gentamicin/amphotericin B, Gibco, New York, USA). Cells were sub-cultured 1-2 times per week in dilution ratios between 1:3-1:6 and were used up to passage number 7.
SI-1.2. Differentiation of endothelial cells […]
The effect of USMB treatment on the viability of epithelial cells was examined using the AlamarBlue assay. […] Next, the solution from the apical side was removed and fluorescence intensity was analyzed with a spectrofluorophotometer (FP 8300, Jasco) at excitation and emission wavelengths of 571 nm and 584/5 nm (center wavelength/bandwidth), respectively. Cell viability of each group was calculated as percentage fluorescent signal relative to that of sham treated cells. […]

[4] = cited from earlier work; for Hydrophilic/Lipophilic: classification in Table 1

Papp A→B at 120 min, 200 µM [1]	total permeated amount [2]	permeated amount ([3]; control samples (0 MPa), 120 minutes, endothelial barrier)	Papp endothelial (HUVEC) barrier relative to epithelial (MDCK II) barrier ([3]; sham treatment, absence of USMB)	Structure (SMILES)	effect of USMB on permeability across epithelial barrier [2]	Hydrophilic/Lipophilic [4]	LogD ([4]; octanol/water partition coefficient at pH 7.4)
0.06 ×10⁻⁶ cm/s	4.06% and 4.1 ± 0.5%	5.14%	22 times and ~ 20 times	O=C(O)c1ccc(C(=O)O)c(-c2c3ccc(=O)cc-3oc3cc(O)ccc23)c1 [6-carboxyfluorescein]	did not have a significant effect; also recorded: lack of measurable effect	Hydrophilic	−3.2
–	5.6 ± 1.4%	–	–	OC[C@@H](O)[C@@H](O)[C@H](O)[C@H](O)CO [Mannitol, mannitol]	did not have a significant effect; also recorded: lack of measurable effect	Hydrophilic	–
–	29.1 ± 2.2%	–	–	CC(C)NCC(O)COc1cccc2ccccc12 (stereo not shown) [Propranolol, propranolol]	did not have a significant effect	Lipophilic	–
